In US20090239928A1, “N-Pyrrolidin-3YL-Amide Derivatives As Serotonin and Noradrenalin Re-Uptake Inhibitors” (priority 2004, published 2009):
Structures can show the parent of a compound that is named as a salt. Where two headings read alike, the source gives them in different places.

Columns and labels:
[1] = target: T1, human noradrenaline transporter (hNET) (Homo sapiens, UniProt P23975); experiment: SPA radioligand binding at human noradrenaline transporter (3H-nisoxetine)
T1 construct: expressed in transfected cells; host or cells: HEK-293
Protocol: The affinity of the specific radioligand for the respective transporter is determined for each membrane batch at the selected protein and bead concentrations. […] The mean KD for a radioligand at a batch of membranes is determined from data from a minimum of three separate assays.
The required amount of membrane is thawed on ice and added to a predetermined volume of bead suspension in assay buffer. The beads are then pre-coupled by incubating the predetermined protein quantity per mg of bead on a shaker at a temperature of 4° C. for 2 hours. Subsequently, the bead/membrane complex is spun down at 865×g for 5 minutes. The resulting pellet is resuspended in assay buffer and this spin/wash step is then repeated. The final pellet is then resuspended in assay buffer at the specific concentration required for the final assay.
An aliquot of [^3H]-radioligand stock is diluted in assay buffer to give a pre-determined final assay concentration less than the equilibrium dissociation constant (KD) value.
All test compounds are prepared at a concentration of 4 mM in 100% dimethyl sulphoxide (DMSO) from dry samples.
The same volume of assay buffer is added to specific wells of the plate to enable subsequent measurement of total radioligand binding. Furthermore, 20 μL a high concentration of compound specific to each transporter assay is subsequently added to predetermined wells to determine non-specific binding (NSB).

[2] = target: T2, human serotonin transporter (hSERT) (Homo sapiens, UniProt P31645); experiment: SPA radioligand binding at human serotonin transporter (3H-citalopram)
T2 construct: expressed in transfected cells; host or cells: HEK-293
Protocol: The compounds are tested for biological activity by their ability to inhibit binding of selective radioligands at the human serotonin and noradrenaline transporters (SERT and NET, respectively), using scintillation proximity assay (SPA) technology. The SPA binding is performed using cellular membrane preparations prepared from cell lines expressing human cDNA encoding either SERT or NET (hSERT, hNET), using the radioligands 3H-citalopram and 3H-nisoxetine.
Human embryonic kidney cells (HEK-293) expressing each transporter are maintained as a continuous culture, using standard cell culture techniques, in 50 mL of growth medium (see Media and Buffers for composition) in 225 cm^2 flasks, at 37° C. in a humidified atmosphere with 5% CO2 present. Cells are passaged from a 90% confluent monolayer at a ratio of 1:3-1:4. For cell harvesting, the growth medium is removed from the monolayer and the cells are incubated with cell dissociation solution (Sigma) until showing signs of dissociation. The cells are subsequently knocked from the base of the flask and pelleted by centrifugation for storage (frozen at −80° C.) prior to further use.
Cell pellets are thawed on ice and resuspended in 3 mL of membrane preparation buffer (see Media and Buffers for composition) per 1 mL of packed cell volume, using a vortex mixer to disperse the cell pellet. • After incubation on ice for 10 minutes, the suspension is homogenised for four individual 10 second intervals using a hand-held homogeniser. The homogenate is then centrifuged at 1075×g for 20 minutes at 4° C. • The supernatants are then collected and retained. Initial cell & nuclei pellets (P1) are subsequently rehomogenised and centrifuged using the conditions cited above, and the supernatants collected and pooled with those retained from the first spin.
The pooled supernatants are centrifuged at 35000×g for 30 minutes at 4° C., and the supernatants discarded. The pellets (P2) are then resuspended in 1 mL of membrane preparation buffer per 1 mL of the original packed cell volume. Protein concentrations are then measured and the membrane suspension was finally frozen in aliquots of set volume and stored at −80° C. prior to use in assays.
The specific SPA bead type differed for each transporter, wheat germ agglutinin-coated yttrium silicate (YSi WGA) SPA beads are used for hSERT and WGA-coated polyvinyltoluene (PvT WGA) SPA beads for hNET assays. For each batch of membrane used, optimal concentrations of bead and membrane are determined
Tritiated radioligands specific to each transporter (3H-citalopram for hSERT and ^3H-nisoxetine for hNET) are used. The assay free radioligand concentration is expressed as a percentage of the total free radioligand concentration to give an estimate of the radioligand depletion. The radioligand depletion in assays for both transporters is less than 30% to ensure that there was sufficient radioligand available for binding. The ligand depletion value is also used for selecting the optimal assay conditions when using new batches of membranes.
The affinity of the specific radioligand for the respective transporter is determined for each membrane batch at the selected protein and bead concentrations. This is achieved by the determination of the KD, the concentration of free radioligand at which 50% of the transporter binding sites were occupied. The mean KD for a radioligand at a batch of membranes is determined from data from a minimum of three separate assays. The mean KD is subsequently used for all assays using the membrane batch profiled to enable determination of Ki values of compounds studied using the method determined by Cheng and Prussoff (Cheng Y C and Prusoff W H. Relationship between the inhibition constant (Ki) and the concentration of inhibitor which causes 50% inhibition of an enzymatic reaction. Biochem Pharmacol 1973; 22:[…].)
The required amount of membrane is thawed on ice and added to a predetermined volume of bead suspension in assay buffer. […]

[3] = hSERT membranes from HEK-293 cells, 3H-citalopram, SPA, read-out: SRI Ki
[4] = hNET membranes from HEK-293 cells, 3H-nisoxetine, SPA, read-out: NRI Ki

T1 sequence (P23975 whole entry): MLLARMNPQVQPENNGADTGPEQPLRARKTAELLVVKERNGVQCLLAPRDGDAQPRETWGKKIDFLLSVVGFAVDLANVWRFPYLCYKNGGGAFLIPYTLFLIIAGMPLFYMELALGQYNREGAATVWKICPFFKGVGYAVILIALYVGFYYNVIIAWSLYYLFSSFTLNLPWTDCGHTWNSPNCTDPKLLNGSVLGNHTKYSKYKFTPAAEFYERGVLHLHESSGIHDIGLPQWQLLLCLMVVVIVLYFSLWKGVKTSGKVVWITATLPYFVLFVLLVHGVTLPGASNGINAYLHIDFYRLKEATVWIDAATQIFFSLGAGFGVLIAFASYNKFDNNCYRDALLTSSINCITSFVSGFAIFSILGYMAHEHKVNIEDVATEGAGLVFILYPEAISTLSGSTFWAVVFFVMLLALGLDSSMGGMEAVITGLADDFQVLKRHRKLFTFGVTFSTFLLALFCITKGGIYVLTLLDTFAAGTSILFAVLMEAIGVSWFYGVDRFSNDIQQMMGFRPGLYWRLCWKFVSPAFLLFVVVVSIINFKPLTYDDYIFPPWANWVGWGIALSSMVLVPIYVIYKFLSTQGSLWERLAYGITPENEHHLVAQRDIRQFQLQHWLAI
T2 sequence (P31645 whole entry): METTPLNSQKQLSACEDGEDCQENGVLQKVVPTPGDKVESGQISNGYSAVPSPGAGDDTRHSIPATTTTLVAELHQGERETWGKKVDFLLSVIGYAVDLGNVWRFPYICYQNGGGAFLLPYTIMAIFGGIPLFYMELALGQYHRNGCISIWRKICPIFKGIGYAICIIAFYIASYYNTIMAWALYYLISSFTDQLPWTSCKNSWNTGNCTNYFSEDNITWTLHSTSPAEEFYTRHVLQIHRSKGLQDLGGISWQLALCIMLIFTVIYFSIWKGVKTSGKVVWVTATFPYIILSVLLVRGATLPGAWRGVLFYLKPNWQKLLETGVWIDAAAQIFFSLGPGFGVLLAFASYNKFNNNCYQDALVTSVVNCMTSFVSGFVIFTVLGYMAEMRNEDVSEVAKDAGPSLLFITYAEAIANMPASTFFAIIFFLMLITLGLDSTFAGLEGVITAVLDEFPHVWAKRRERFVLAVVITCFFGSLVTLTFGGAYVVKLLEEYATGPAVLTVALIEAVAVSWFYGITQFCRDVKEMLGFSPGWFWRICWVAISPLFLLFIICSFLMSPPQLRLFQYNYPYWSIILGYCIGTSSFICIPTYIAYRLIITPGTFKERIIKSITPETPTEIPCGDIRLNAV

| SMILES | Ki [1] [nM] | Ki [2, 3] [nM] | Ki [1, 4] [nM] | Ki [2] [nM] |
| --- | --- | --- | --- | --- |
| CSc1ccccc1C(=O)N(CC1(C)CCC1)[C@H]1CCNC1 [Example 9, N-[(1-methylcyclobutyl)methyl]-2-(methylthio)-N-[(3S)-pyrrolidin-3-yl]benzamide hydrochloride] | 6 | 20 |  |  |
| O=C(c1ccccc1Oc1ccccc1)N(c1ccccc1)[C@H]1CCNC1 [Example 14, 2-phenoxy-N-phenyl-N-[(3S)-pyrrolidin-3-yl]benzamide hydrochloride] |  |  | 3 | 67 |
| CCCN(C(=O)c1cc(F)ccc1Oc1ccccc1)[C@H]1CCNC1 [Example 7, 5-fluoro-2-phenoxy-N-propyl-N-[(3S)-pyrrolidin-3-yl]benzamide hydrochloride] |  | 2400 | 9 |  |
| CSc1ccccc1C(=O)N(C1CCCCC1)[C@H]1CCNC1 [Example 20, N-cyclohexyl-2-(methylthio)-N-[(3S)-pyrrolidin-3-yl]benzamide hydrochloride] |  | 17 | 5 |  |
| O=C(c1ccccc1Oc1ccccc1)N(C1CCCC1)[C@H]1CCNC1 [Example 4, N-Cyclopentyl-2-phenoxy-N-[(3S)-pyrrolidin-3-yl]benzamide hydrochloride] |  | 70 | 12 |  |
| O=C(c1ccccc1C1CCCC1)N(CC1CC1)[C@H]1CCNC1 [Example 19, 2-cyclopentyl-N-(cyclopropylmethyl)-N-[(3S)-pyrrolidin-3-yl]benzamide hydrochloride] |  | 500 | 16 |  |
